Test results published in patent publication US9314521B2, “Adjuvant compound” (ISA Pharmaceuticals B.V., priority 2011, dated 2016).
Non-standard residues stand in square brackets, D forms with d. No end group written: not given here. *: point of attachment. Cys((RS)-2,3-di(palmitoyloxy)-propyl) = Cys S-substituted with (RS)-2,3-di(palmitoyloxy)-propyl (dipalmitoyl-glyceryl); X1 = (RS)‑2,3‑di(palmitoyloxy)‑propyl, CCCCCCCCCCCCCCCC(=O)OCC(C*)OC(=O)CCCCCCCCCCCCCCC; 1‑tetradecyl‑urea = N-terminal tetradecyl-urea lipid group, CCCCCCCCCCCCCCNC(=O)*; Abu = CC[C@H](N)C(=O)O

What was measured:
[1] = system: DC; experiment: UPam variants: up-regulation of cell surface markers CD40, CD86 and MHC Class II (DC maturation); format: cell-based; conditions: 3 μM and 30 nM
Description: The UPam variants wherein Xn was varied were compared by measuring IL-12 production and the up-regulation of the cell surface markers CD40, CD86 and MHC Class II at 3 μM and 30 nM. Herein, Xn takes the place of serine in the SK4 (SEQ ID NO: 18) peptide part according to formula (2), containing different groups for R^5. Compounds X1 up to X8 containing these different groups R^5, which were studied are listed in the table below, wherein X1 is the UPam-14 as prepared in Example 1 and X2 is the UPam-14-Abu as prepared in Example 3. The potency of the compounds to upregulate CD40 followed the trend as observed in the DC maturation assay. […] In the up-regulation of the cell surface marker CD86 and MHC class II a corroborated trend was observed.

[2] = system: murine dendritic cell line; experiment: activation of murine dendritic cell line, IL-12 ELISA; format: cell-based; conditions: 24 hours, titrating concentrations
Description: The two compounds U-Pam-12 and U-Pam-14 as obtained in Example 1 were tested in comparison to unmodified Pam3CysSK4 (SEQ ID NO: 11) for their functional capacity to activate a human TLR2 expressing reporter cell line HEK-TLR2 (FIG. 3A) and a murine dendritic cell line (FIG. 3B).
In the test live TLR2-transfected HEK cells and dendritic cells (5×10^4 cells/well) were incubated with titrating concentrations of the respective Pam compounds in culture medium and incubated at 37° C. After 24 hours, supernatants were harvested and the presence of IL-8 or IL-12 cytokines respectively, was measured by specific sandwich ELISA assays.

[3] = system: murine DC cell line; experiment: DC maturation: cell surface marker expression in murine DC cell line by FACS (FIG. 4); format: cell-based; conditions: 30 nM, 48 hours, compared to Pam3CSK4
Description: The DCs were subsequently stained with antibodies directed against CD40, CD86 and MHC class II molecules. Mean fluorescence intensity was determined FACS analysis.

[4] = system: human monocyte-derived dendritic cells (moDC); experiment: activation of human monocyte-derived dendritic cells (moDC): IL12p40, IL12p70 ELISA and CD86 staining (FIG. 5); format: cell-based; conditions: 48 hours of incubation, compared to Pam3CSK4 or Pam-SLP
Description: On day 5 of culturing the CD 14±fraction of donor PBMC in growth medium with IL-4 and GM-CSF, these moDC were incubated with either wt Pam3CSK4 (SEQ ID NO: 11), U-Pam14, Pam3CSK4 (SEQ ID NO: 11)-conjugated or U-Pam14-conjugated synthetic long peptide (Pam-SLP or uPam14-SLP), or left unstimulated. After 48 hours of incubation, the supernatant of the moDC cultures was taken, which was subjected to IL12p40 (FIG. 5A) and IL12p70 (FIG. 5B) ELISA analysis. After 48 hours of incubation, the moDCs were stained with antibodies directed against CD86 (FIG. 5C).

[5] = system: cellular immune response; conditions: mice; Vaccine 22 (2004) 2494-2499; cited from earlier work

| Substance | up-regulation of CD40 compared to Pam3Cys-SK4 [1] | stimulation (IL-12 cytokine production) compared to unmodified Pam3CysSK4 [2] | expression of cell surface molecules CD40, CD86 and MHC class II (mean fluorescence intensity) [3] | activation of human dendritic cells (IL12p40, IL12p70, CD86) [4] | additive for eliciting a cellular immune response [5] |
| --- | --- | --- | --- | --- | --- |
| 1-tetradecyl-urea-Cys((RS)-2,3-di(palmitoyloxy)-propyl)-Abu-Lys-Lys-Lys-Lys-NH2 ({1‑tetradecyl‑urea-Cys((RS)-2,3-di(palmitoyloxy)-propyl)}-[Abu]KKKK-NH2) [Upam-14-Abu] | increased amount of up-regulation | – | – | – | – |
| 1-tetradecyl-urea-Cys((RS)-2,3-di(palmitoyloxy)-propyl)-Ser-Lys-Lys-Lys-Lys-NH2 ({1‑tetradecyl‑urea}-C(X1)SKKKK-NH2; SMILES CCCCCCCCCCCCCCCC(=O)OCC(CSC[C@H](NC(=O)NCCCCCCCCCCCCCC)C(=O)N[C@@H](CO)C(=O)N[C@@H](CCCCN)C(=O)N[C@@H](CCCCN)C(=O)N[C@@H](CCCCN)C(=O)N[C@@H](CCCCN)C(N)=O)OC(=O)CCCCCCCCCCCCCCC) [U-Pam-14] | increased amount of up-regulation | superior to wt Pam | superior to wt Pam | improves activation of human dendritic cells | – |
| Pam3Cys-SK4: established TLR2/TLR1 ligand, state of the art lipopeptide adjuvant (SEQ ID NO: 11) (CSKKKK; not fully specified (residue 1, N-terminus)) | – | – | – | – | most effective additive |
